Common to all, as to format: biochemical
The target in one assay is T1, TYK2 (Homo sapiens, UniProt P29597).
T1 construct: purchased Invitrogen
As to the kind of experiment: TYK2 enzyme inhibition test (LANCE method). The settings on record: 1 μM test compound; for inhibition at 1 µM: read-out: TYK2 enzyme inhibitory activity (%, 1 μM). The method, then: (§1) TYK2 enzyme inhibitory activity of test compounds was measured by the LANCE method (PerkinElmer). First, a test compound diluted with assay buffer (50 mM HEPES (pH 7.5), 10 mM MgCl2, 1 mM EGTA, 2 mM DTT, 0.01% Tween20, 0.01% BSA) was added to a 384-well plate by 2 μL each. Then, a TYK2 (Invitrogen) solution and a fluorescence-labeled peptide substrate (ULight-JAK1, PerkinElmer) solution diluted with assay buffer to 375 ng/mL and 300 nM, respectively, were added by 2 μL each. Then, an enzyme reaction was started by adding 2 μL each of ATP solution prepared with assay buffer to 30 μM. After the reaction at room temperature for 1 hr, Detection Buffer (PerkinElmer) prepared to contain 20 mM EDTA, 4 nM europium-labeled anti-phosphotyrosine antibody (PerkinElmer) was added by 6 μL each. After standing at room temperature for 1 hr, fluorescence intensity (excitation wavelength 340 nm, fluorescence wavelength 665 nm, delay time 100 microseconds) was measured by a plate reader, Envision (PerkinElmer). The inhibitory activity of each compound was calculated as a relative activity value to the fluorescence intensity of a well free of enzyme as 100% inhibition.
Background: TR-FRET usually uses a lanthanide donor and a delayed reading to cut background.

A further assay deals with T2, JAK2 (Homo sapiens, UniProt O60674).
T2 construct: purchased Invitrogen
As to the kind of experiment: JAK2 enzyme inhibition test (LANCE method). The note with it: 1 μM test compound; for inhibition at 1 µM: read-out: JAK2 enzyme inhibitory activity (%, 1 μM). The method, then: as §1, with “JAK2 enzyme” for “TYK2 enzyme”, “a JAK2” for “a TYK2”, “to 6” for “to 375”, “to 45” for “to 30”

The next assay addresses T3, JAK1 (Homo sapiens, UniProt P23458).
T3 construct: purchased Invitrogen
As to the kind of experiment: JAK1 enzyme inhibition test (LANCE method). The note with it: 1 μM test compound; for inhibition at 1 µM: read-out: JAK1 enzyme inhibitory activity (%, 1 μM). Here is the method:
as §1, with “JAK1 enzyme” for “TYK2 enzyme”, “a JAK1” for “a TYK2”, “to 187.5” for “to 375”, “to 150” for “to 30”

A further assay deals with T4, JAK3 (Homo sapiens, UniProt P52333).
T4 construct: purchased Invitrogen
T4 sequence (P52333 1-1124): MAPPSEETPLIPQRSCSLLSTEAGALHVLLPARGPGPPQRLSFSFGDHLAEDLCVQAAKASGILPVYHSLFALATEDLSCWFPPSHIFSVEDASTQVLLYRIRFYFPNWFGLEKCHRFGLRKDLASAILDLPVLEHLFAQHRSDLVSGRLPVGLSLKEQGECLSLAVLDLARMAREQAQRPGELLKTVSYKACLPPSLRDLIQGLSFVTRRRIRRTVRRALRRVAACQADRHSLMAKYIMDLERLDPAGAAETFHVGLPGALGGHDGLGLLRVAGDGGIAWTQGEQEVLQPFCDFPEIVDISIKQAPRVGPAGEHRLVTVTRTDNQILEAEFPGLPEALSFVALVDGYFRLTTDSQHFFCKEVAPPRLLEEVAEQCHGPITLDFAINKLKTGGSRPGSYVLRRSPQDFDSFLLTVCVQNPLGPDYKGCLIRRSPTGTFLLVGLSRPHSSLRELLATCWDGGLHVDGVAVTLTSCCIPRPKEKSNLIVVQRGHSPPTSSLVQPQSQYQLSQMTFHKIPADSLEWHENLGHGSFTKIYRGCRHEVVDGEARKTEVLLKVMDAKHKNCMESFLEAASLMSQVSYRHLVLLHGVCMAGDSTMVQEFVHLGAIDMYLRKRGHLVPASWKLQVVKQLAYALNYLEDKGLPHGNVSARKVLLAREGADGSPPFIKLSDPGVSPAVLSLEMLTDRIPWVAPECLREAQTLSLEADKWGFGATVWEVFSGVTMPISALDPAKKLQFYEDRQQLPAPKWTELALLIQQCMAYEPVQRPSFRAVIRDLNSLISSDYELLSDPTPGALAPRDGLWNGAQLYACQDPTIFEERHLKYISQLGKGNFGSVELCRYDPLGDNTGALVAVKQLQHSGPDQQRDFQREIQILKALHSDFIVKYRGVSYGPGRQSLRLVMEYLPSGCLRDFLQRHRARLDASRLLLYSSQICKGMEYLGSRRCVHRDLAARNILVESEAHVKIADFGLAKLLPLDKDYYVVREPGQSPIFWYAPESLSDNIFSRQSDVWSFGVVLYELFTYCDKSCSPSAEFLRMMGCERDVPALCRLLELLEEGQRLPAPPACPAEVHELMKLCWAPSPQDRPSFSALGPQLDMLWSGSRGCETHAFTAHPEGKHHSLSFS
As to the kind of experiment: JAK3 enzyme inhibition test (LANCE method). The note with it: 1 μM test compound; for inhibition at 1 µM: read-out: JAK3 enzyme inhibitory activity (%, 1 μM). Here is the method: as §1, with “JAK3 enzyme” for “TYK2 enzyme”, “a JAK3” for “a TYK2”, “to 12” for “to 375”, “to 15” for “to 30”

T2 sequence (O60674 whole entry): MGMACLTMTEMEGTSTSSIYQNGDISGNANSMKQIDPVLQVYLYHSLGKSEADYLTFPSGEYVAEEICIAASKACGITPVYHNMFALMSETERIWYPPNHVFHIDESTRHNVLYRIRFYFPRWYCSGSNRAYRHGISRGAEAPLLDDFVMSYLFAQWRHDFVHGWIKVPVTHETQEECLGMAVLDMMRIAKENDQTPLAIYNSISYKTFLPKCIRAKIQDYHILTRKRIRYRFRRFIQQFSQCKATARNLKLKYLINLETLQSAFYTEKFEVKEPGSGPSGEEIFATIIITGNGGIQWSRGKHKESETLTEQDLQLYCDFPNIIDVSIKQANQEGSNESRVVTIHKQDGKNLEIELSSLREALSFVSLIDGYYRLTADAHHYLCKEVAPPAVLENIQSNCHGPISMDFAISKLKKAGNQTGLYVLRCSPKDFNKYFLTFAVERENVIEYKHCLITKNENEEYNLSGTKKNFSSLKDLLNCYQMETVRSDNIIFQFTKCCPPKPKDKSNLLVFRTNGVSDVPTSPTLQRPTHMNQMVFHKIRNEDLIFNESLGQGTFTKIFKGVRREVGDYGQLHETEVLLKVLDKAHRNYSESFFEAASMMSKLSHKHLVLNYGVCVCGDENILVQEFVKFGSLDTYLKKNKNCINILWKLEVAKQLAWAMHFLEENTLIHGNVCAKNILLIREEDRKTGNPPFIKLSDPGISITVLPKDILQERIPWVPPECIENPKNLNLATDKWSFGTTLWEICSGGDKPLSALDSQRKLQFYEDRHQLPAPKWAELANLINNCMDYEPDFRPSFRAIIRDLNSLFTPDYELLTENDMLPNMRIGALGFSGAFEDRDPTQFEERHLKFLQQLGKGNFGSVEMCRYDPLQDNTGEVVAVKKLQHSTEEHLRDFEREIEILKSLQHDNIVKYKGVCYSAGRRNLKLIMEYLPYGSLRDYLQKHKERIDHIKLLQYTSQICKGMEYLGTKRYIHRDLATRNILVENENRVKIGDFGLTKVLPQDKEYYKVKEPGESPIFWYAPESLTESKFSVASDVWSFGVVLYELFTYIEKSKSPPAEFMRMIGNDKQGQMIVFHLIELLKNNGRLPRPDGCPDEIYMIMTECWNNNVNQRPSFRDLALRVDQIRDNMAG
T1 sequence (P29597 whole entry): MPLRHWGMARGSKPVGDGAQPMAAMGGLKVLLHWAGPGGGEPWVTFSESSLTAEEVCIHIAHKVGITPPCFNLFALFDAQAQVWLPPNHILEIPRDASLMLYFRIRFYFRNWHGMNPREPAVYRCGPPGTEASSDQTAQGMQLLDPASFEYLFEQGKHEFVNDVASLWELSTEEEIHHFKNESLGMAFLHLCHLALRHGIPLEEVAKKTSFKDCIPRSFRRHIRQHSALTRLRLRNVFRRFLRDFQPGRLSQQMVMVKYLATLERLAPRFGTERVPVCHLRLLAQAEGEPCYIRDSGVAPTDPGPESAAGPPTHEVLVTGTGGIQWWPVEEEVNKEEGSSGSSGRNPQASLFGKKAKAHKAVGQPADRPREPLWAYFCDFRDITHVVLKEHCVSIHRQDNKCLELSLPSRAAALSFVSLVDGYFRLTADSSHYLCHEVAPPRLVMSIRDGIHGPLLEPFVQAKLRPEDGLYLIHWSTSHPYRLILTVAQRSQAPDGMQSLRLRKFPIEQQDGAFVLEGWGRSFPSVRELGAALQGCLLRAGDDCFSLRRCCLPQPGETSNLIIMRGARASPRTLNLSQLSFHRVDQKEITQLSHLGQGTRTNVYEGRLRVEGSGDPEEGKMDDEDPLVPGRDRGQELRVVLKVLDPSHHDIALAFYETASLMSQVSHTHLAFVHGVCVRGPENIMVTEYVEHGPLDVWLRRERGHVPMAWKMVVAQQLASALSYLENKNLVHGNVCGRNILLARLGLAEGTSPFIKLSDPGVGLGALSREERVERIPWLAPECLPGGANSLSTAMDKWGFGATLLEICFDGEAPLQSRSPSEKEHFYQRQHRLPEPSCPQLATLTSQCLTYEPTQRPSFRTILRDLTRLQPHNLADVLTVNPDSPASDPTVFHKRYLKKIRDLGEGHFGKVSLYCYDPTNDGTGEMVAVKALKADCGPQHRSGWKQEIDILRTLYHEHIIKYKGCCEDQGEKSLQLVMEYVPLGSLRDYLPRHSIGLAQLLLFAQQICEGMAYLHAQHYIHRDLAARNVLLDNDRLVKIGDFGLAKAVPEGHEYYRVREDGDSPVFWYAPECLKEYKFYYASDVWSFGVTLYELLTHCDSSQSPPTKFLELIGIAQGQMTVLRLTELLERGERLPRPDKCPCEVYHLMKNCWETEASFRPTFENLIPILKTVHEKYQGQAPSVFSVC
T3 sequence (P23458 whole entry): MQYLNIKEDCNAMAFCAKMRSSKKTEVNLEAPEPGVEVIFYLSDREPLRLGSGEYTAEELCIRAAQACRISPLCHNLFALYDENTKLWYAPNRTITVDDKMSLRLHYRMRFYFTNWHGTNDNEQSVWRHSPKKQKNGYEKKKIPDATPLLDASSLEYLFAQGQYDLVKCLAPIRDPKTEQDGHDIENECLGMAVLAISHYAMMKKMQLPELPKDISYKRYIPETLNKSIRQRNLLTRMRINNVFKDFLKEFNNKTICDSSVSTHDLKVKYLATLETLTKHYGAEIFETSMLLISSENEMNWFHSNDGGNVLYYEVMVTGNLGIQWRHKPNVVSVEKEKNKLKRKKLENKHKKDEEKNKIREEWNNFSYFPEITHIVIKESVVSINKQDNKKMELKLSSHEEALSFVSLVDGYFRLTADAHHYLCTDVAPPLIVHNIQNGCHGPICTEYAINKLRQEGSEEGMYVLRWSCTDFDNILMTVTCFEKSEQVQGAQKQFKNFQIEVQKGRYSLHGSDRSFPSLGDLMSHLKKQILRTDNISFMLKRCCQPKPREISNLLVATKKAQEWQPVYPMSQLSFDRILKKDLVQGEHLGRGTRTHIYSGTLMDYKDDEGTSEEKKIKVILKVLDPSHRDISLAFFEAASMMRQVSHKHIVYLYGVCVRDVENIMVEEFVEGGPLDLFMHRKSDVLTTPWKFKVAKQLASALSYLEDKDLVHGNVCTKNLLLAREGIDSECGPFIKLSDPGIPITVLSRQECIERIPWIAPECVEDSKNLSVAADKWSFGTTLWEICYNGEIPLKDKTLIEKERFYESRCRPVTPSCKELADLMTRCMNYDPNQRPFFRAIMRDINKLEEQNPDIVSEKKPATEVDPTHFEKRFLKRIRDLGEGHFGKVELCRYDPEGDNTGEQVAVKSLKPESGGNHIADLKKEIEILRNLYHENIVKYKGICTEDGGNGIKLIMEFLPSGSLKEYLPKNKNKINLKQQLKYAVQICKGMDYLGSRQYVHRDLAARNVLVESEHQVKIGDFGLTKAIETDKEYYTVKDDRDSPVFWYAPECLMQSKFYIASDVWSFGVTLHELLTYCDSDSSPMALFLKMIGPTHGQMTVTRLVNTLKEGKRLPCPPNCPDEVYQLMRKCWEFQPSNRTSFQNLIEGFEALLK

In the case of `CN(C)C[C@H]1CCCN1c1cc(-c2cn(-c3c(F)cccc3F)c(=O)c3c(N)n[nH]c23)nn1C` [Example 126, 3-amino-5-(2,6-difluorophenyl)-7-(5-((2R)-2-((dimethylamino)methyl)pyrrolidin-1-yl)-1-methyl-1H-pyrazol-3-yl)-1,5-dihydro-4H-pyrazolo[4,3-c]pyridin-4-one], the inhibition at 1 µM worked out at 98% on TYK2, 98% on JAK2, 92% on JAK1 and 99% on JAK3.
For the compound `Cn1nc(-c2cn(C(C3CC3)C3CC3)c(=O)c3c(N)n[nH]c23)cc1N1C2CCC1COC2` [Example 151, 3-amino-5-(dicyclopropylmethyl)-7-(1-methyl-5-(3-oxa-8-azabicyclo[3.2.1]oct-8-yl)-1H-pyrazol-3-yl)-1,5-dihydro-4H-pyrazolo[4,3-c]pyridin-4-one], the inhibition at 1 µM on TYK2 turned out to be 102%; at JAK2, 100%; on JAK1, 99%; on JAK3, 101%.
The like results for `COC1(c2cc(-c3cn([C@@H](C)C(C)C)c(=O)c4c(N)n[nH]c34)nn2C)CN(S(=O)(=O)C(C)C)C1` [Example 136, 3-amino-7-(5-(1-(isopropylsulfonyl)-3-methoxyazetidin-3-yl)-1-methyl-1H-pyrazol-3-yl)-5-((2S)-3-methylbutan-2-yl)-1,5-dihydro-4H-pyrazolo[4,3-c]pyridin-4-one] were, in that order, 100%, 98%, 80% and 98%.
Turning to `CC(C)[C@H](C)n1cc(-c2cc(N3CCC(C)(O)C3)n(C)n2)c2[nH]nc(N)c2c1=O` (stereo partly drawn) [Example 64, 3-amino-7-(5-(3-hydroxy-3-methylpyrrolidin-1-yl)-1-methyl-1H-pyrazol-3-yl)-5-((2S)-3-methylbutan-2-yl)-1,5-dihydro-4H-pyrazolo[4,3-c]pyridin-4-one], the “TYK2 enzyme inhibitory activity (%, 1 μM)” value at TYK2 (1 µM) was found to be 100%. The “JAK2 enzyme inhibitory activity (%, 1 μM)” value on JAK2 (1 µM) is listed as 99%. Also, at JAK1 (1 µM), the “JAK1 enzyme inhibitory activity (%, 1 μM)” value is 97%. In addition, at JAK3 (1 µM), the “JAK3 enzyme inhibitory activity (%, 1 μM)” value was found to be 99%.
Turning to `COC[C@H]1CCCN1c1cc(-c2cn(C(C3CC3)C3CC3)c(=O)c3c(N)n[nH]c23)nn1C` [Example 159, 3-amino-5-(dicyclopropylmethyl)-7-(5-((2R)-2-(methoxymethyl)pyrrolidin-1-yl)-1-methyl-1H-pyrazol-3-yl)-1,5-dihydro-4H-pyrazolo[4,3-c]pyridin-4-one], the inhibition at 1 µM at TYK2 worked out at 100%; at JAK2, 99%; at JAK1 it was 99%; on JAK3, 100%.
As to `CN(C)[C@@H]1CCN(c2cc(-c3cn(C(C4CC4)C4CC4)c(=O)c4c(N)n[nH]c34)nn2C)C1` [Example 156, 3-amino-5-(dicyclopropylmethyl)-7-(5-((3R)-3-(dimethylamino)pyrrolidin-1-yl)-1-methyl-1H-pyrazol-3-yl)-1,5-dihydro-4H-pyrazolo[4,3-c]pyridin-4-one], the inhibition at 1 µM was found to be 100% at TYK2, 99% at JAK2, 100% on JAK1 and 100% at JAK3.
In the case of `Cn1nc(-c2cn(-c3c(F)cccc3C#N)c(=O)c3c(N)n[nH]c23)cc1C(C)(C)O` [Example 71, 2-(3-amino-7-(5-(2-hydroxypropan-2-yl)-1-methyl-1H-pyrazol-3-yl)-4-oxo-1,4-dihydro-5H-pyrazolo[4,3-c]pyridin-5-yl)-3-fluorobenzonitrile], the inhibition at 1 µM stood at 99% on TYK2, 97% at JAK2, 98% on JAK1 and 98% at JAK3.
On to `CN(C)[C@H]1CCN(c2cc(-c3cn(-c4c(F)cccc4F)c(=O)c4c(N)n[nH]c34)nn2C)C1` [Example 140, 3-amino-5-(2,6-difluorophenyl)-7-(5-((3S)-3-(dimethylamino)pyrrolidin-1-yl)-1-methyl-1H-pyrazol-3-yl)-1,5-dihydro-4H-pyrazolo[4,3-c]pyridin-4-one], for which the inhibition at 1 µM turned out to be 99% on TYK2, 99% at JAK2, 98% on JAK1 and 100% on JAK3.
As to `COC1(c2cc(-c3cn([C@@H](C)C(C)C)c(=O)c4c(N)n[nH]c34)nn2C)CCS(=O)(=O)CC1` [Example 110, 3-amino-7-(5-(4-methoxy-1,1-dioxidotetrahydro-2H-thiopyran-4-yl)-1-methyl-1H-pyrazol-3-yl)-5-((2S)-3-methylbutan-2-yl)-1,5-dihydro-4H-pyrazolo[4,3-c]pyridin-4-one], the inhibition at 1 µM at TYK2 was 100%; at JAK2 it was 99%; at JAK1, 89%; on JAK3, 99%.
